Experimental data as given in the NIST ThermoML archive (doi:10.1016/j.jct.2016.06.017).

Columns and labels:
[1] = 100 kPa, Liquid, Frequency=0.01 MHz, Alternating current cell with electrodes
[2] = xn = mol fraction of the nth substance listed; conditions: 100 kPa, Liquid, Frequency=0.01 MHz, Alternating current cell with electrodes

CCCCn1cc[n+](C)c1.N#CN=C=[N-] [1-butyl-3-methylimidazolium dicyanamide]
[1]
Conditions | electrical conductivity [S/m]
273.15 K | 0.383
283.15 K | 0.636
293.15 K | 0.972
298.15 K | 1.17
303.15 K | 1.39
313.15 K | 1.89
323.15 K | 2.46

CCCCn1cc[n+](C)c1.N#CN=C=[N-] [1-butyl-3-methylimidazolium dicyanamide] + O=C1CCCO1
[2], x1 = 1
Conditions | electrical conductivity [S/m]
273.15 K | 0.383
283.15 K | 0.636
293.15 K | 0.972
298.15 K | 1.17
303.15 K | 1.39
313.15 K | 1.89
323.15 K | 2.46

O=C1CCCO1 [γ-butyrolactone] + CCCCn1cc[n+](C)c1.N#CN=C=[N-]
electrical conductivity [S/m], [2]
Conditions | x2 = 0.0504 | x2 = 0.1002 | x2 = 0.2002 | x2 = 0.2984 | x2 = 0.4005 | x2 = 0.4954 | x2 = 0.6957 | x2 = 0.8871
273.15 K | 1.05 | 1.4 | 1.518 | 1.35 | 1.13 | 0.924 | 0.639 | 0.454
283.15 K | 1.27 | 1.71 | 1.918 | 1.77 | 1.54 | 1.32 | 0.968 | 0.736
293.15 K | 1.5 | 2.03 | 2.35 | 2.24 | 2.012 | 1.78 | 1.37 | 1.09
298.15 K | 1.62 | 2.2 | 2.58 | 2.49 | 2.27 | 2.03 | 1.606 | 1.3
303.15 K | 1.74 | 2.38 | 2.814 | 2.75 | 2.53 | 2.29 | 1.85 | 1.53
313.15 K | 1.98 | 2.73 | 3.301 | 3.29 | 3.101 | 2.87 | 2.401 | 2.04
323.15 K | 2.23 | 3.09 | 3.81 | 3.87 | 3.707 | 3.48 | 3.009 | 2.625
